{"source": "patent US20090214507A1", "about": "“METHOD OF TREATING PREVENTING, INHIBITING OR REDUCING DAMAGE TO CARDIAC TISSUE” (RegeneRx Biopharmaceuticals, Inc., priority 2004, published 2009)", "key": {"[1]": {"target": "T1, integrin linked kinase (ILK) (Homo sapiens, UniProt Q13418)", "T1 construct": "expressed in transfected cells; host or cells: Cos and 10T1/2 cells", "T1 sequence (Q13418 1-452)": "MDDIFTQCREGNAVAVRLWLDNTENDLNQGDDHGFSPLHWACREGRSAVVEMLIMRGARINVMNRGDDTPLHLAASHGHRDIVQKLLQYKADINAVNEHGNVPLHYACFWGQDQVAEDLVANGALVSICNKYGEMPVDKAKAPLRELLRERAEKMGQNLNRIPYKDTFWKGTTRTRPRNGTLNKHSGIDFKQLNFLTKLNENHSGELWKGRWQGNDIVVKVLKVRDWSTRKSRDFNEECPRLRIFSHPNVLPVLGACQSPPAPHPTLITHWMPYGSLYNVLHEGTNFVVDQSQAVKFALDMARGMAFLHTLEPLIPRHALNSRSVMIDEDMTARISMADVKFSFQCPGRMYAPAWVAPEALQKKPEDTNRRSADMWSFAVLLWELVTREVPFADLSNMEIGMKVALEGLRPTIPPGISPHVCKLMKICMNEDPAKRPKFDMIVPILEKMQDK", "assay": "coimmunoprecipitation with ILK", "format": "binding", "conditions": "coimmunoprecipitation in transfected cultured cells", "source_text": "(§1) To investigate the potential mechanisms through which thymosin β4 might be influencing cell migration and survival events, thymosin β4 interacting proteins were searched. The amino-terminus of thymosin β4 was fused with affi-gel beads resulting in exposure of the carboxy-terminus that allowed identification of previously unknown interacting proteins but prohibited association with actin. An E9.5-12.5 mouse heart T7 phage cDNA library was synthesized and screened by phage display and thymosin β4-interacting clones were enriched and confirmed by ELISA. […] PINCH and integrin linked kinase (ILK) interact directly with one another and indirectly with the actin cytoskeleton as part of a larger complex involved in cell-extracellular matrix interactions known as the focal adhesion complex. PINCH and ILK are required for cell motility and for cell survival, in part by promoting phosphorylation of the serine-threonine kinase Akt/protein kinase B, a central kinase in survival and growth signaling pathways. […] The PINCH interaction with thymosin β4 mapped to the fourth and fifth LIM domains of PINCH while the amino terminal ankryin domain of ILK was sufficient for thymosin β4 interaction.\nCos and 10 T1/2 cells were transfected with thymosin β4, PINCH and/or ILK and lysates precipitated with antibodies to each as previously described. […]"}, "ILK / Akt [2]": {"system": "ILK / Akt", "assay": "western blot of heart lysates after coronary ligation", "format": "in vivo, mouse", "protocol": "Because thymosin β4 upregulates ILK activity and Akt phosphorylation in cultured cells, the effects on these kinases in vivo were tested. […] Total Akt protein was not increased.\n(§2) Myocardial infarction was produced in fifty-eight male C57BL/6J mice at 16 weeks of age (25-30 g) by ligation of the left anterior descending coronary artery as previously described. Twenty-nine of the ligated mice received thymosin β4 treatment immediately following ligation and the remaining twenty-nine received PBS injections. Treatment was given intracardiac with thymosin β4 (200 ng in 10 ul collagen) or with 10 ul of collagen; intraperitoneally with thymosin β4 (150 μg in 300 μl PBS) or with […]; or by both intracardiac and intraperitoneal injections. Intraperitoneal injections were given every three days until mice were sacrificed. Doses were based on previous studies of thymosin β4 biodistribution. Hearts were removed, weighed and fixed for histologic sectioning. Additional mice were operated on in a similar fashion for studies 0.5, 1, 3, 6 and 11 days after ligation."}, "[3]": {"system": "myocardial infarction in adult mice", "assay": "myocardial infarction by coronary artery ligation, echocardiography and histology", "format": "in vivo, mouse", "protocol": "Because of thymosin β4's effects on survival and migration of cardiomyocytes cultured in vitro and phosphorylation of Akt, it was tested whether thymosin β4 might aid in cardiac repair in vivo after myocardial damage. Myocardial infarctions in fifty-eight adult mice were created by coronary artery ligation and treated half with systemic, intracardiac, or systemic plus intracardiac thymosin β4 immediately after ligation and the other half with PBS. Intracardiac injections were done with collagen (control) or collagen mixed with thymosin β4. All forty-five mice that survived two weeks later were interrogated for cardiac function by random-blind ultrasonography at 2 and 4 weeks after infarction by multiple measurements of cardiac contraction. […] Control cardiac injections were performed with the same collagen vehicle making it unlikely that an endogenous reaction to the injection contributed to the cardiac recovery.\nTo determine the manner in which […] improved cardiac function, multiple serial histologic sections of hearts treated with or without thymosin β4 were examined. […] TUNEL positive cells that were also myocytes were rare in the thymosin β4 group but abundant in the control hearts. […] Thus, the decreased scar volume and preserved function of thymosin β4 treated mice were likely due to early preservation of myocardium after infarction through thymosin β4's effects on survival of cardiomyocytes.\nEmbryonic or adult cardiac tissue was embedded in paraffin and sections used for immunohistochemistry. […] Adult hearts were sectioned at ten equivalent levels from the base of the heart to the apex. Serial sections were used for trichrome sections and reaction with sarcomeric a-actinin, c-kit, Sca-1, Abcg2, and BrdU antibodies and for TUNEL assay (Intergen Company #S7111).\nas §2\nEchocardiograms to assess systolic function were performed using M-mode and 2-dimensional measurements as described previously. The measurements represented the average of six selected cardiac cycles from at least two separate scans performed in random-blind fashion with papillary muscles used as a point of reference for consistency in level of scan. End diastole was defined as the maximal left ventricle (LV) diastolic dimension and end systole was defined as the peak of posterior wall motion. Single outliers in each group were omitted for statistical analysis. Fractional shortening (FS), a surrogate of systolic function, was calculated from LV dimensions as follows: FS=EDD−ESD/EDD×100%. Ejection fraction (EF) was calculated from two-dimensional images. EDD, end diastolic dimension; ESD, end systolic dimension.\nScar volume was calculated using six sections through the heart of each mouse using Openlab 3.03 software (Improvision) similar to previously described. Percent area of collagen deposition was measured on each section in blinded fashion and averaged for each mouse."}, "ILK / Akt [4]": {"system": "ILK / Akt", "assay": "ILK localization, expression and activation (immunocytochemistry, Western)", "format": "cell-based", "protocol": "Because recruitment of ILK to the focal adhesion complex is important for its activation, the effects of thymosin β4 on ILK localization and expression were assayed. […] Because thymosin β4 sequesters the pool of G-actin monomers, the effects on ILK activation were dependent on thymosin β4's role in regulating the balance between polymerized F-actin and monomeric G-actin were tested."}, "PINCH": {"target": "T2, PINCH (Mus musculus, UniProt Q99JW4)", "T2 construct": "made in house; host or cells: T7 phage amplified in E. coli BLT5615", "T2 sequence (Q99JW4 whole entry)": "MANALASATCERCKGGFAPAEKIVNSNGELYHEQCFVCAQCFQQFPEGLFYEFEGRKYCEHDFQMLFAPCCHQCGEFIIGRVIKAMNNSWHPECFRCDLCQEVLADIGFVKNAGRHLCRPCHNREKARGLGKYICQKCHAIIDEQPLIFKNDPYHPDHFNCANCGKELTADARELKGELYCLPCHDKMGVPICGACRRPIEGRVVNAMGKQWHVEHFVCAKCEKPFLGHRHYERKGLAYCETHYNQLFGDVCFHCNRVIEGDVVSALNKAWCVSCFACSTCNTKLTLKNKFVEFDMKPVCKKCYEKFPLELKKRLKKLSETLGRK", "assay": "phage display ELISA and coimmunoprecipitation with PINCH", "format": "binding", "conditions": "ELISA; coimmunoprecipitation in transfected cultured cells", "source_text": "as §1\n300 ul of Affi-Gel 15 (Bio-Rad Laboratories) was coupled with 12 ug of synthesized thymosin β4 protein (RegeneRx) following the manufacturers manual, likely via amino terminal lysine residues. […]"}, "embryonic heart explants": {"system": "embryonic heart explants", "assay": "embryonic heart explant collagen gel migration assay", "format": "cell-based, mouse", "protocol": "To test the effects of secreted thymosin β4 on cardiac cell migration, an embryonic heart explant system designed to assay cell migration and transformation events on a three-dimensional collagen gel was utilized. In this assay, explants of adjacent embryonic myocardium and endocardium from valve-forming regions were placed on a collagen gel with the endocardium adjacent to the collagen.\n(§3) To test the response of post-natal cardiomyocytes, primary rat neonatal cardiomyocytes were cultured on laminin-coated glass and treated the cells with phosphate buffered saline (PBS) or thymosin β4.\nTo determine if activation of ILK was necessary for the observed effects of thymosin β4, a well-described ILK inhibitor, wortmannin, was employed, which inhibits ILK's upstream kinase, phosphatidylinositol 3-kinase (PI3-kinase). Using myocardial cell migration and beating frequency as assays for thymosin β4 activity, embryonic heart explants were cultured as described above in the presence of thymosin β4 with or without wortmannin.\nOutflow tract was dissected from E11.5 wild type mouse embryos and placed on collagen matrices as previously described. After 10 hours of attachment explants were incubated in 30 ng/300 μl thymosin β4 in PBS, PBS alone or thymosin β4 and 100 nM wortmannin. Cultures were carried out for 3-9 days at 37° C. 5% CO2 and fixed in 4% paraformaldehyde in PBS for 10 min at RT. Cells were counted for quantification of migration and distance using at least three separate explants under each condition for endothelial migration and eight separate explants for myocardial migration.\nParaformaldehyde-fixed explants were permeabilized for 10 min at RT with Permeabilize solution (10 mM PIPES pH6.8; 50 mMNaC1; 0.5% Triton X-100; 300 mM Sucrose; 3 mM MgC12) and rinsed with PBS 2×5 min at RT. After a series of blocking and rinsing steps, detection antibodies were used and explants rinsed and incubated with Equilibration buffer (Anti-Fade kit) 10 min at room temperature. Explants were scooped to a glass microscope slide, covered, and examined by fluorescein microscopy. TUNEL assay was performed using ApopTag Plus Fluorescein In Situ Apoptosis detection kit (Intergen Company #S7111) as recommended."}, "[5]": {"system": "cardiac endothelial cells", "assay": "collagen gel assay, transformation of cardiac endothelial cells to mesenchymal cells", "format": "cell-based", "conditions": "Tβ4 at physiological concentrations", "protocol": "Synthetic Tβ4 and an antibody to Tβ4 was provided by RegeneRx Biopharmaceuticals, Inc. (3 Bethesda Metro Center, Suite 700, Bethesda, Md. 20814) and were tested in a collagen gel assay to determine their effects on the Transformation of cardiac endothelial cells to mesenchymal cells. It is well established that development of heart valves and other cardiac tissue are formed by epithelial-mesenchymal transformation and that defects in this process can cause serious cardiovascular malformation and injury during development and throughout life. […] Transformation of atrioventricular endocardium into invasive mesenchyme is an aspect of the formation and maintenance of normal cardiac tissue and in the formation of heart valves."}, "[6]": {"system": "primary rat neonatal cardiomyocytes", "assay": "primary neonatal cardiomyocyte culture on laminin-coated glass", "format": "cell-based", "protocol": "as §3\nPrimary culture of neonatal cardiomyocytes typically survived for approximately one to two weeks with some cells beating up to two weeks when grown on laminin-coated slides in our laboratory. […] In addition, the rate of beating was consistently faster in thymosin β4-treated neonatal cardiomyocytes (95 vs. 50 beats per minute, p<0.02), indicating either a change in cell-cell communication or more vigorous cardiomyocytes."}, "[7]": {"conditions": "four weeks after infarction, versus control"}}, "data": [{"substance": "thymosin β4", "values": [{"measurement": "interaction with ILK", "setting": "[1]", "result": "weaker than with PINCH"}, {"measurement": "total Akt protein", "setting": "ILK / Akt [2]", "result": "not increased"}, {"measurement": "level of ILK protein in heart lysates", "setting": "ILK / Akt [2]; compared with PBS treated mice", "result": "increased"}, {"measurement": "amount of phosphorylated Akt-5473", "setting": "ILK / Akt [2]; phospho-specific antibodies", "result": "elevation"}, {"measurement": "cardiac dilation after infarction (EDD and ESD)", "setting": "[3]; EDD and ESD significantly higher in control group", "result": "decreased cardiac dilation"}, {"measurement": "mean ejection fraction", "setting": "[3]; four weeks after infarction, n=23, 95% confidence interval, control 28.2", "result": "57.7+/−3.2%"}, {"measurement": "mean left ventricle fractional shortening", "setting": "[3]; four weeks after infarction, n=23, 95% confidence intervals, control 23.2", "result": "37.2+/−1.8%"}, {"measurement": "improvement in cardiac fractional shortening", "setting": "[3]; [7]", "result": "greater than 60%"}, {"measurement": "improvement in ejection fraction", "setting": "[3]; [7]", "result": "> 100", "unit": "%"}, {"measurement": "degree of improvement, systemic (intraperitoneal) versus local intracardiac administration", "setting": "[3]; mouse, in vivo, ip", "result": "not statistically different"}, {"measurement": "scar volume", "setting": "[3]; six levels of sections through left ventricle, subset of mice, p<0.05", "result": "significant reduction"}, {"measurement": "left ventricle fractional shortening", "setting": "[3]; three days after infarction, intracardiac treatment, n=4, 95% confidence interval, control 28.8", "result": "39.2+/−2.34%"}, {"measurement": "ejection fraction", "setting": "[3]; three days after infarction, intracardiac treatment, control 44.7", "result": "64.2+/−6.69%"}, {"measurement": "size of scar (trichrome stain)", "setting": "[3]; three levels of section, all treated mice", "result": "reduced"}, {"measurement": "cardiomyocyte proliferation or death", "setting": "[3]; three, six, eleven or fourteen days after coronary ligation", "result": "did not detect significant cardiomyocyte proliferation or death"}, {"measurement": "number of c-kit, Sca-1 or Abcg2 positive cardiomyocytes", "setting": "[3]; treated versus untreated hearts", "result": "no detection of any differences"}, {"measurement": "cardiomyocyte cell death by TUNEL assay", "setting": "[3]; twenty-four hours after ligation", "result": "striking decrease in cell death"}, {"measurement": "ILK protein levels (Western analysis)", "setting": "ILK / Akt [4]; C2C12 cells", "result": "modest increase"}, {"measurement": "total Akt protein", "setting": "ILK / Akt [4]; C2C12 cells", "result": "unchanged"}, {"measurement": "phosphorylation of Akt (serine 473)", "setting": "ILK / Akt [4]; C2C12 cells, phospho-specific antibody", "result": "increased phosphorylation"}, {"measurement": "ILK detection by immunocytochemistry", "setting": "ILK / Akt [4]; embryonic heart explants or C2C12 myoblasts, 10 ng/100 ul synthetic protein or expressing plasmid", "result": "markedly enhanced around the cell edges"}, {"measurement": "interaction with PINCH", "setting": "PINCH", "result": "interacted with thymosin β4 in the absence of actin"}, {"measurement": "number of migrating endothelial cells", "setting": "embryonic heart explants; E11.5 explants, compared to PBS, p<0.01", "result": "increased number of migrating endothelial cells"}, {"measurement": "cell death (TUNEL assay) in migrated cells", "setting": "embryonic heart explants; compared to control cells", "result": "No significant difference"}, {"measurement": "proliferative rate (phosho-histone H3 immunostaining) in migrated cells", "setting": "embryonic heart explants; compared to control cells", "result": "No significant difference"}, {"measurement": "migration of myocardial cells away from the explant", "setting": "embryonic heart explants; thymosin β4 added to primary explants on collagen gel", "result": "a large number of spontaneously beating, cardiac muscle actin-positive cells had migrated away from the explant"}, {"measurement": "transformation of endocardial cells to mesenchymal cells", "setting": "[5]", "result": "markedly enhances"}, {"measurement": "migrational distance of neonatal cardiomyocytes", "setting": "[6]; compared to control, p<0.05", "result": "significantly increased"}, {"measurement": "survival in culture, rhythmically contracting myocytes visible", "setting": "[6]; control cultures survive approximately one to two weeks", "result": "up to 28 days"}, {"measurement": "rate of beating", "setting": "[6]; vs. 50 in control, p<0.02", "result": 95, "unit": "beats per minute"}]}]}
